Laboratory results published in US20060069132A1, “Azolecarboxamide herbicides” (priority 2004, published 2006).

Assays:
[1] = test system: rice; assay: Test B pre-/postemergence herbicide test; assay type: in vivo, Oryza sativa; conditions: preemergence
Procedure, shortened: (§1)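 Formulation: non-phytotoxic solvent mix with surfactant. Timing: preemergence on seed and postemergence on 2–18 cm plants, applied concurrently. Readout after 13–15 d greenhouse: visual 0–100 control rating against controls.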

[2] = test system: lambsquarters; assay: Test B pre-/postemergence herbicide test; assay type: in vivo, Chenopodium album
Procedure, shortened: as §1

[3] = test system: large crabgrass; assay: Test B pre-/postemergence herbicide test; assay type: in vivo, Digitaria sanguinalis; conditions: for Crabgrass, Large plant response rating: postemergence, visual rating, scale 0 (no effect) to 100 (complete control)
Procedure, shortened: as §1

[4] = test system: barnyardgrass; assay: Test B flooded paddy test; assay type: in vivo, Echinochloa crus-galli; conditions: 1000 g ai/ha, visual rating, scale 0 to 100 (0 no effect, 100 complete control), 13 to 15 days
Procedure, shortened: (§2)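 Plants grow to 1- to 4-leaf stage (2–18 cm) for postemergence spraying, or to 2-leaf stage for the paddy test. Formulated compound is applied. Greenhouse holding lasts 13–15 days. Response is scored visually relative to controls, 0 no effect to 100 complete control; a dash means no result.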

[5] = test system: corn; assay: Test B pre-/postemergence herbicide test; assay type: in vivo, Zea mays; conditions: for Corn plant response rating: postemergence, visual rating, scale 0 (no effect) to 100 (complete control)
Procedure, shortened: as §1

[6] = test system: ducksalad; assay: Test C flooded paddy test; assay type: in vivo, Heteranthera limosa
[7] = test system: Surinam grass; assay: Test B pre-/postemergence herbicide test; assay type: in vivo, Urochloa decumbens; conditions: for Surinam Grass plant response rating: postemergence, visual rating, scale 0 (no effect) to 100 (complete control)
Procedure, shortened: as §1

[8] = test system: rice; assay: Test C flooded paddy test; assay type: in vivo, Oryza sativa
Procedure, shortened: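 Plants were grown to the 1- to 4-leaf stage (2–18 cm) and then treated postemergence, or grown to the 2-leaf stage for the flooded paddy test. They were held in a greenhouse for 12 to 14 days and then scored by eye against controls, where 0 is no effect and 100 is complete control.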

[9] = test system: morningglory; assay: Test B pre-/postemergence herbicide test; assay type: in vivo, Ipomoea coccinea; conditions: for Morningglory plant response rating: postemergence, visual rating, scale 0 (no effect) to 100 (complete control)
Procedure, shortened: (§3)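 Species tested were Echinochloa crus-galli, Ipomoea coccinea, Xanthium strumarium and Oryza sativa, treated both before emergence and at the 1- to 4-leaf stage; rice and barnyardgrass were also tested under flooding at 2 leaves. Greenhouse incubation lasted 13–15 days before visual 0–100 scoring.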

[10] = test system: barnyardgrass; assay: Test C flooded paddy test; assay type: in vivo, Echinochloa crus-galli
Procedure, shortened: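 Weeds and wheat were sprayed after emergence, at a height of 2 to 18 cm (1–4 leaves), and paddy barnyardgrass was flooded and treated at two leaves. Assessment took place 12–14 days later in the greenhouse on a 0-to-100 visual control scale. A dash means no result was obtained.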

[11] = test system: pigweed; assay: Test B pre-/postemergence herbicide test; assay type: in vivo, Amaranthus retroflexus; conditions: for Pigweed plant response rating: postemergence, visual rating, scale 0 (no effect) to 100 (complete control)
Procedure, shortened: as §1

[12] = test system: ducksalad; assay: Test B flooded paddy test; assay type: in vivo, Heteranthera limosa; conditions: 1000 g ai/ha, visual rating, scale 0 to 100 (0 no effect, 100 complete control), 13 to 15 days
Procedure, shortened: as §2

[13] = test system: rice; assay: Test B flooded paddy test; assay type: in vivo, Oryza sativa; conditions: 1000 g ai/ha, visual rating, scale 0 to 100 (0 no effect, 100 complete control), 13 to 15 days
Procedure, shortened: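 Scale 0–100: zero equals no visible effect, 100 complete control, judged by eye relative to controls. Timing: 13 to 15 days in greenhouse post-treatment. Growth stage at spraying: two leaves (paddy) or one to four leaves, 2–18 cm (postemergence).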

[14] = test system: barnyardgrass; assay: Test B pre-/postemergence herbicide test; assay type: in vivo, Echinochloa crus-galli; conditions: for Barnyardgrass plant response rating: postemergence, visual rating, scale 0 (no effect) to 100 (complete control)
Procedure, shortened: as §3

[15] = test system: wheat; assay: Test B postemergence herbicide test; assay type: in vivo, Triticum aestivum; design: key to Wheat plant response rating: 0 = no effect, 100 = complete control; conditions: postemergence, visual rating, scale 0 (no effect) to 100 (complete control)
Procedure, shortened: (§4)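 After treating 2-leaf paddy plants or 2–18 cm postemergence plants (1 to 4 leaves) with formulated chemical, researchers kept them in a greenhouse for 13–15 days. Effects were judged visually versus controls: 0 indicates none, 100 total control.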

[16] = test system: blackgrass; assay: Test B postemergence herbicide test; assay type: in vivo, Alopecurus myosuroides; conditions: postemergence, visual rating, scale 0 (no effect) to 100 (complete control)
Procedure, shortened: as §2

[17] = test system: wild oat; assay: Test B postemergence herbicide test; assay type: in vivo, Avena fatua; conditions: postemergence, visual rating, scale 0 (no effect) to 100 (complete control)
Procedure, shortened: as §4

[18] = test system: velvetleaf; assay: Test B pre-/postemergence herbicide test; assay type: in vivo, Abutilon theophrasti; conditions: for Velvetleaf plant response rating: postemergence, visual rating, scale 0 (no effect) to 100 (complete control)
Procedure, shortened: as §1

[19] = test system: giant foxtail; assay: Test B pre-/postemergence herbicide test; assay type: in vivo, Setaria faberi; conditions: for Foxtail, Giant plant response rating: postemergence, visual rating, scale 0 (no effect) to 100 (complete control)
Procedure, shortened: as §1

[20] = test system: small flower umbrella sedge; assay: Test B flooded paddy test; assay type: in vivo, Cyperus difformis; conditions: 1000 g ai/ha, visual rating, scale 0 to 100 (0 no effect, 100 complete control), 13 to 15 days
Procedure, shortened: as §2

[21] = test system: cocklebur; assay: Test B pre-/postemergence herbicide test; assay type: in vivo, Xanthium strumarium; conditions: for Cocklebur plant response rating: postemergence, visual rating, scale 0 (no effect) to 100 (complete control)
Procedure, shortened: as §3

[22] = test system: smallflower umbrella sedge; assay: Test C flooded paddy test; assay type: in vivo, Cyperus difformis
[23] = 125 g ai/ha, 0 = no effect, 100 = complete control, preemergence
[24] = 500 g ai/ha, visual rating 0-100, 0 no effect, 100 complete control, preemergence
[25] = 62 g ai/ha, scale 0 to 100 (0 no effect, 100 complete control)
[26] = 125 g ai/ha, scale 0 to 100 (0 no effect, 100 complete control)
[27] = 250 g ai/ha, scale of 0 to 100, 0 is no effect, 100 is complete control
[28] = 500 g ai/ha, visual rating after 12 to 14 days, scale 0 to 100 (0 no effect, 100 complete control)

With `CCc1nn(C(C)(C)C)cc1C(=O)Nc1cc(C(=O)NC)ccc1F` [Compound 194] the “Rice plant response rating (0 to 100 scale)” value ([1]; 125 g ai/ha, 0 = no effect, 100 = complete control) was 0, the “Plant response rating, Rice” value ([1]; 500 g ai/ha, visual rating 0-100, 0 no effect, 100 complete control) was 70 and the “Lambsquarters plant response rating (0 to 100 scale)” value [2, 23] was 30. The “Lambsquarters plant response rating” value ([2]; postemergence, 500 g ai/ha, visual rating, scale 0 (no effect) to 100 (complete control)) was 30, the “Crabgrass, Large plant response rating (0 to 100 scale)” value [3, 23] was 100 and the “Plant response rating, Crabgrass, Large” value [3, 24] was 100. For the same compound, the “Crabgrass, Large plant response rating” value ([3]; 125 g ai/ha) was 10, the “Crabgrass, Large plant response rating” value ([3]; 500 g ai/ha) was 10 and the “Barnyardgrass plant response rating” value [4] was 50. The “Corn plant response rating (0 to 100 scale)” value [5, 23] was 0, the “Plant response rating, Corn” value [5, 24] was 50 and the “Corn plant response rating” value ([5]; 125 g ai/ha) was 0. For the same compound, the “Corn plant response rating” value ([5]; 500 g ai/ha) was 0, the “Ducksalad plant response rating” value [6, 25] was 0 and the “Ducksalad plant response rating” value [6, 26] was 0. The “Ducksalad plant response rating” value [6, 27] was 0, the “Plant response rating, Ducksalad” value [6, 28] was 40 and the “Surinam Grass plant response rating (0 to 100 scale)” value [7, 23] was 0. The “Plant response rating, Surinam Grass” value [7, 24] was 60, the “Surinam Grass plant response rating” value ([7]; 125 g ai/ha) was 10 and the “Surinam Grass plant response rating” value ([7]; 500 g ai/ha) was 10. For the same compound, the “Rice plant response rating” value [8, 25] was 0, the “Rice plant response rating” value [8, 26] was 25 and the “Rice plant response rating” value [8, 27] was 25. For the same compound, the “Plant response rating, Rice” value [8, 28] was 45, the “Morningglory plant response rating (0 to 100 scale)” value [9, 23] was 20 and the “Plant response rating, Morningglory” value [9, 24] was 50. For the same compound, the “Morningglory plant response rating” value ([9]; 125 g ai/ha) was 10, the “Morningglory plant response rating” value ([9]; 500 g ai/ha) was 10 and the “Barnyardgrass plant response rating” value [10, 25] was 0. For the same compound, the “Barnyardgrass plant response rating” value [10, 26] was 0, the “Barnyardgrass plant response rating” value [10, 27] was 0 and the “Plant response rating, Barnyardgrass” value [10, 28] was 25. The “Pigweed plant response rating (0 to 100 scale)” value [11, 23] was 0, the “Plant response rating, Pigweed” value [11, 24] was 100 and the “Pigweed plant response rating” value ([11]; 125 g ai/ha) was 20. For the same compound, the “Pigweed plant response rating” value ([11]; 500 g ai/ha) was 30, the “Ducksalad plant response rating” value [12] was 90 and the “Rice plant response rating” value [13] was 60. For the same compound, the “Barnyardgrass plant response rating (0 to 100 scale)” value [14, 23] was 0, the “Plant response rating, Barnyardgrass” value [14, 24] was 90 and the “Barnyardgrass plant response rating” value ([14]; 125 g ai/ha) was 0. The “Barnyardgrass plant response rating” value ([14]; 500 g ai/ha) was 10, the “Wheat plant response rating” value ([15]; 125 g ai/ha) was 0 and the “Wheat plant response rating” value ([15]; 500 g ai/ha) was 0. The “Blackgrass plant response rating” value ([16]; 125 g ai/ha) was 0, the “Blackgrass plant response rating” value ([16]; 500 g ai/ha) was 0 and the “Oat, Wild plant response rating” value ([17]; 125 g ai/ha) was 0. For the same compound, the “Oat, Wild plant response rating” value ([17]; 500 g ai/ha) was 0, the “Velvetleaf plant response rating (0 to 100 scale)” value [18, 23] was 20 and the “Plant response rating, Velvetleaf” value [18, 24] was 60. For the same compound, the “Velvetleaf plant response rating” value ([18]; 125 g ai/ha) was 10, the “Velvetleaf plant response rating” value ([18]; 500 g ai/ha) was 10 and the “Foxtail, Giant plant response rating (0 to 100 scale)” value [19, 23] was 10. The “Plant response rating, Foxtail, Giant” value [19, 24] was 80, the “Foxtail, Giant plant response rating” value ([19]; 125 g ai/ha) was 0 and the “Foxtail, Giant plant response rating” value ([19]; 500 g ai/ha) was 0. The “Sedge, Umbrella plant response rating” value [20] was 80, the “Cocklebur plant response rating (0 to 100 scale)” value [21, 23] was 0 and the “Plant response rating, Cocklebur” value [21, 24] was 20. For the same compound, the “Cocklebur plant response rating” value ([21]; 125 g ai/ha) was 10, the “Cocklebur plant response rating” value ([21]; 500 g ai/ha) was 10 and the “Sedge, Umbrella plant response rating” value [22, 25] was 0. For the same compound, the “Sedge, Umbrella plant response rating” value [22, 26] was 0, the “Sedge, Umbrella plant response rating” value [22, 27] was 35 and the “Plant response rating, Sedge, Umbrella” value [22, 28] was 75.
